Reference: patent US20030207432A1, “Remedies for intractable wound” (Fujisawa Pharmaceutical Co., Ltd.,, priority 1999, published 2003)
“Also recorded” adds a separate entry of the source.

How the values were obtained:
[1] = system: foot ulcer induced by acetic acid; assay: Foot ulcer induced by acetic acid, normal rats (applied FR136706); assay type: in vivo, rat; conditions: for Ulcer area after administration of acetic acid / Swelling score after administration of acetic acid: normal rat, 0.2% in PEG400 applied, average, n=6; for Swelling score after administration of acetic acid: score 0-3
Method: (§1) The action of the compound (applied) in accordance with this invention on a foot ulcer induced by acetic acid was examined by using normal and diabetic rats. Diabetes was induced in each of a seven-week-old male SD rats by intravenously administrating 60 mg/kg streptozotocin (STZ) to its tail. Fourteen days after the administration of STZ, 20 μl glacial acetic acid was administered into the skin of the left foot instep of each of the diabetic rats and control rats of the same age while anesthetized using ether, thereby causing necrosis at the portion. In the case when the necrotic cuticle of the skin remained two days after the necrosis, the cuticle was removed surgically. Then, the administration of FR136706 (0.2% solution in PEG (polyethylene glycol) 400) was started (50 μl to the affected portion). PEG400 was administered to the control group in a similar way. In a period between two days and 25 days after the administration of acetic acid, swelling scores (0: no swelling, 1: slight swelling, 2: intermediate swelling, 3: significant swelling) was checked visually, and the major axis length and the minor axis length of each ulcer was measured with vernier calipers. The area of each ulcer was calculated from the major axis length and the minor axis length thereof.

[2] = system: foot ulcer induced by acetic acid; assay: Diabetic rat foot ulcer curing action (STZ diabetic rats, foot ulcer induced by acetic acid); assay type: in vivo; conditions: for Ulcer area after administration of acetic acid / Swelling score after administration of acetic acid: diabetic rat, 0.2% in PEG400 applied, average, n=6; for Swelling score after administration of acetic acid: score 0-3
Method: as §1

[3] = qualitative, by solvent; known properties from earlier filings; cited from earlier work
[4] = normal rats, 0.2% solution in PEG400 applied
[5] = diabetic rats, 0.2% solution in PEG400 applied

With CC(C)C(NC(=O)[C@@H]1CCCN1C(=O)[C@@H](NC(=O)c1ccc(C(=O)NCC(=O)[O-])cc1)C(C)C)C(=O)C(F)(F)F.[Na+] (mixture of isomers) [FR136706, Sodium salt of 3(RS)-[[4-(carboxymethylaminocarbonyl)phenylcarbonyl]-L-valyl-L-prolyl]amino-1,1,1-trifluoro-4-methyl-2-oxopentane] the “Ulcer area after administration of acetic acid” value (from here on “Ulcer area after administration”) ([1]; after 2 days) was 58.37 mm^2, the “Swelling score after administration of acetic acid” value (from here on “Swelling score after administration”) ([1]; after 2 days) was 2.5 and the “Ulcer area after administration” value ([1]; after 8 days) was 71.42 mm^2. For the same compound, the “Swelling score after administration” value ([1]; after 8 days) was 2.0, the “Ulcer area after administration” value ([1]; after 11 days) was 53.21 mm^2 and the “Swelling score after administration” value ([1]; after 11 days) was 1.5. The “Ulcer area after administration” value ([1]; after 15 days) was 18.32 mm^2, the “Swelling score after administration” value ([1]; after 15 days) was 1.0 and the “Ulcer area after administration” value ([1]; after 18 days) was 0.69 mm^2. For the same compound, the “Swelling score after administration” value ([1]; after 18 days) was 0.5, the “Ulcer area after administration” value ([1]; after 22 days) was 0.00 mm^2 and the “Swelling score after administration” value ([1]; after 22 days) was 0.0. For the same compound, the “Ulcer area after administration” value ([1]; after 25 days) was 0.00 mm^2, the “Swelling score after administration” value ([1]; after 25 days) was 0.0 and the “Effect on contraction of ulcer areas (in words)” value [1, 4] was “did not act on the normal rats”. For the same compound, the “Effect on recovery of swelling scores (in words)” value [1, 4] was “did not act on the normal rats”, the “Ulcer area after administration” value ([2]; after 2 days) was 69.17 mm^2 and the “Swelling score after administration” value ([2]; after 2 days) was 2.2. The “Ulcer area after administration” value ([2]; after 8 days) was 91.77 mm^2, the “Swelling score after administration” value ([2]; after 8 days) was 2.8 and the “Ulcer area after administration” value ([2]; after 11 days) was 72.38 mm^2. For the same compound, the “Swelling score after administration” value ([2]; after 11 days) was 2.5, the “Ulcer area after administration” value ([2]; after 15 days) was 41.00 mm^2 and the “Swelling score after administration” value ([2]; after 15 days) was 1.5. For the same compound, the “Ulcer area after administration” value ([2]; after 18 days) was 16.10 mm^2, the “Swelling score after administration” value ([2]; after 18 days) was 1.5 and the “Ulcer area after administration” value ([2]; after 22 days) was 12.08 mm^2. For the same compound, the “Swelling score after administration” value ([2]; after 22 days) was 1.2, the “Ulcer area after administration” value ([2]; after 25 days) was 6.99 mm^2 and the “Swelling score after administration” value ([2]; after 25 days, & significant at 5% vs PEG400 diabetic group) was 0.7. The “Effect on contraction of ulcer areas (in words)” value [2, 5] was “tended to promote the contraction of the ulcer areas of the diabetic rats” and the “Effect on recovery of swelling scores (in words)” value [2, 5] was “promoted the recovery of the diabetic rats”.
In the case of “Dipotassium salt of the WS7622A disulfate ester”, the Solubility [3] is given as “soluble: water, methanol; also recorded: insoluble: chloroform, n-hexane”.
In the case of “Disodium salt of WS7622A disulfate ester”, the Solubility [3] is listed as “soluble: water, methanol; also recorded: insoluble: chloroform, n-hexane”.
